Converted amounts (≈) assume the structure as drawn. Where two headings read alike, the source gives them in different places.

The nature of data set [1]: physchem. The conditions noted are these: organic solvent or mixture, thermodynamic from solid.
Data set [2] is classed as physicochemical.
Data set [3] in a line: SN-38 content, lactone/carboxy anion ratio and pH after dilution of surfactant composition with aqueous solution. The conditions noted are these: tromethamine/ethanol/cremophore EL solution, refrigerator 1 week, diluted with 0.9% saline to 5 Ml. Format: physicochemical.
For data set [4] the following is noted: cited from earlier work.
Data set [5] is described as follows: Lyophilized SN-38 formulation reconstituted with water for injection, HPLC and pH. In kind it is physicochemical. The method, then: Alternatively, a 10-hydroxycamptothecin compound and an amine compound are solubilized in non-aqueous polar solvent, and polymer surfactant is added thereto to prepare a solution. Next, a caking agent for lyophilization is added thereto to prepare a lyophilized formulation. As a specific example, 250 mg of copolymer (mPEG-PLA) of polyethyleneglycol (molecular weight: 2,000 daltons) and polylactic acid (molecular weight: 1,800 daltons) maybe added to a solution in which SN-38 and tromethamine are solubilized in anhydrous ethanol as above, to prepare a pure solution, and then 4 Ml of aqueous mannitol solution (100 mg/Ml) as a caking agent for lyophilization is added thereto, which is filtered with a filter having a pore size of 200 nm, and lyophilized. This lyophilized formulation is reconstituted with 4 Ml of water for injection, and then analyzed by HPLC to confirm that the concentration of SN-38 was 205 μg/Ml, 92% or more of SN-38 existed in the form of a lactone, and the pH of the aqueous solution was 8.4.
12 mg of tromethamine was dissolved in 1 ml of anhydrous ethanol, and 1 mg of SN-38 was added thereto and heated to 60[…] to prepare a pure solution of orange color. Subsequently, the block copolymer of methoxypolyethyleneglycol and polylactic acid, and 200 mg of mPEG-PLA (mPEG molecular weight: 2,000 daltons, PLA molecular weight: 1,800 daltons) were added thereto to prepare a pure solution. Then, 5 ml of aqueous mannitol solution (50 mg/ml) was added thereto, mixed, filtered with a filter having a pore size of 200 nm, and lyophilized to prepare a lyophilized formulation.
Injectable water of 4 Ml was added to the lyophilized vial to reconstitute the lyophilized formulation.

Data set [6] deals with acetylcholine. The conditions noted are these: compared with CPT-11; cited from earlier work.
Data set [7] has as its target T1, topoisomerase □ (Homo sapiens, UniProt P11387).
T1 sequence (P11387 1-765): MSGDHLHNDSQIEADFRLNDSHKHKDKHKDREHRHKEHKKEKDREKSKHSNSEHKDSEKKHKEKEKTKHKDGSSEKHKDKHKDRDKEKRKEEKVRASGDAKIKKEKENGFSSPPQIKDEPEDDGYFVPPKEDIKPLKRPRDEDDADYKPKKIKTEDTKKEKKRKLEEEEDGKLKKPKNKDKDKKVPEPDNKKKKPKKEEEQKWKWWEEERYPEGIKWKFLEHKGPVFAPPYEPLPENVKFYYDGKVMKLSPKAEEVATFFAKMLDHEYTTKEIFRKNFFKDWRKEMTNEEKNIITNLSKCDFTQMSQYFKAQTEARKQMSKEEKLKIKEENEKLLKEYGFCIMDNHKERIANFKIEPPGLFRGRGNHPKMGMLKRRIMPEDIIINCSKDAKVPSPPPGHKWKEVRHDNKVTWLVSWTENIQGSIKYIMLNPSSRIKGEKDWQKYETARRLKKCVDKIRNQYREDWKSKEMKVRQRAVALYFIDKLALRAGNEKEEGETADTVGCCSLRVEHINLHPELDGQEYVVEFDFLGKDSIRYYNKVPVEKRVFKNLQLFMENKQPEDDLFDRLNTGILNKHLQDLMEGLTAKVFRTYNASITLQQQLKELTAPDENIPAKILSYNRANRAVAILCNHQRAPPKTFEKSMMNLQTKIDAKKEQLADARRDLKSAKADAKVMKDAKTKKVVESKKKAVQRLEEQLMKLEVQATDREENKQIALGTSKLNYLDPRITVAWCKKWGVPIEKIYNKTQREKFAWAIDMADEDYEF
The conditions noted are these: relative to CPT-11; cited from earlier work.

The mark [8] stands for this setting: anhydrous ethanol, 10 equivalents of triethanolamine.
[9] abbreviates: lyophilized with 250 mg mPEG-PLA, tromethamine, mannitol, reconstituted with 4 Ml water for injection.

For the compound `CCc1c2c(nc3ccc(O)cc13)-c1cc3c(c(=O)n1C2)COC(=O)C3(O)CC` (stereo not drawn) [SN-38, 7-ethyl-10-hydroxycamptothecin], the solubility (usually the concentration that dissolves in the medium under given conditions) at 12 h in data set [1] (Solubility of SN-38 in ethanol, ethanol, no amine) was 8 µg/mL (≈ 20.4 µM); in data set [1] (Solubility of SN-38 in ethanol, in the presence of 5 or more equivalents of diethanolamine) it was at least 1000 µg/mL; in data set [1] (Solubility, SN-38 1 mg in 1 ml anhydrous ethanol, amine compound 10 equivalents, room temperature 12 hours), at least 1000 µg/mL; in data set [1] (Solubility, SN-38 1 mg in 1 ml organic solvent, tromethamine 10 equivalents, room temperature 12 hours), at least 1000 µg/mL. The “Solubility of SN-38” value runs as follows: (anhydrous ethanol without adding an amine compound) “a few”; under setting [8], “about 1 mg/Ml”. In addition, the “SN-38 in the form of a lactone” value was 100% in data set [2] (1 mg SN-38, 10 mg tromethamine, 1 Ml anhydrous ethanol, 500 mg cremophore EL, diluted with acetonitrile) and at least 92% in data set [5] (setting [9]). The Lacton content is recorded as 100% in data set [2] (SN-38 1 mg in 1 ml anhydrous ethanol, amine compound 10 equivalents) and 100% in data set [2] (SN-38 1 mg in 1 ml organic solvent, tromethamine 10 equivalents). Moreover, the “Form of SN-38 by HPLC analysis” value in data set [2] (setting [8]) is “no carboxy anion form was observed”. In addition, the “Concentration of SN-38” value in data set [3] came to 220 µg/mL; in data set [5] (setting [9]), 205 µg/mL. Moreover, in data set [3], the “SN-38 in the form of the lactone” value was at least 95%. In addition, the “pH of the solution diluted with saline” value in data set [3] is on record as 8.7. Further, in data set [4] (active lactone form), the “Solubility in water of the active lactone form” value is “not more than 10 μg/ml”. Moreover, in data set [4], the “Solubility of SN-38 in water” value is given as “not more than 10 μg/ml”. For the same compound, in data set [4] (inactive carboxy anion form), the “Solubility in water of the carboxy anion form” value was at least 4000 µg/mL. For the same compound, the “pH of the aqueous solution” value is 8.4 in data set [5] (Example 8: 12 mg tromethamine, 200 mg mPEG-PLA, mannitol, lyophilized, reconstituted with 4 Ml injectable water) and 8.4 in data set [5] (setting [9]). In addition, the “Lactone form of SN-38” value in data set [5] (Example 8 lyophilized formulation reconstituted with 4 Ml injectable water) is 97%. In addition, the Drug content in data set [5] (Example 8 lyophilized formulation reconstituted with 4 Ml injectable water, HPLC) was found to be 242 µg/mL. Besides, the “Effect for inhibiting acetylcholine which causes diarrhea” value in data set [6] is reported as “much lower than that of CPT-11”. Moreover, the “Activity for inhibiting topoisomerase □, higher than that of CPT-11” value in data set [7] is “about 1,000 times”.

The values above are taken from patent publication US20070254905A1, “Pharmaceutical Formulation for Increasing Solubility of 10-Hydroxycamptothecin Compounds in Non-Aqueous Polar Solvents” (priority 2004, published 2007).
